Reference: patent US20020156068A1, “Anti-psychosis combination” (priority 2001, published 2002)
Counter-ions that a name gives are not always drawn.

Tested on: MK-801-induced hyperactivity
Assay: Antagonism of MK801-induced hyperlocomotion (locomotor activity cages)
Type: in vivo, rat
Settings: 180 min; for MK-801-induced hyperactivity as measured by a decrease in ambulation: male Sprague-Dawley rats, AR116081 10 or 20 mg/kg oral, each alone; for MK-801-induced hyperactivity as measured by a decrease in ambulation / effect of MK801 on fine movements, a measure of stereotypies / effect on rear measures (rearing activity): Haloperidol 0.05 mg/kg s.c., MK-801 0.3 mg/kg s.c.; for effect of MK801 on fine movements, a measure of stereotypies / effect on rear measures (rearing activity): AR116081 20 mg/kg oral, alone or combined
Experimental: Antagonism of MK801-Induced Hyperlocomotion: a Model of Potential Antipsychotic (“antipositive”) Activity
Because part of the symptomatology of schizophrenia may be related to altered glutamate transmission at the NMDA receptor, the reversal of MK-801-induced hyperlocomotor activity in rodents has been used routinely as an animal model for detecting potential antipsychotic activity (Hoffinan, D. C., J. Neural. Transm. 89:1-10, 1992).
Motor function was assessed using automated locomotor activity cages (Hamilton-Kinder, San Diego) comprised of standard rodent cages surrounded by photocell beams, allowing for automated recording of motor activity. The animals were under no motivational constraints and were free to move around the cages. In this test, male Sprague-Dawley rats (200-325 g body weight) were food deprived overnight prior to testing. On the testing day, they were administered AR116081 orally at a dose of 10 or 20 mg/kg base (substance # 127190 suspended in 1% Tween 80 and 99% distilled water solution, volume injection 10 cc/kg) immediately followed by subcutaneous administration of Haloperidol at a dose of 0.05 mg/kg base (RBI lot # TOW-1990 dissolved in distilled water and pH at 5-6, volume injection 1 cc/kg). The treated rats were placed in the locomotor activity cages 30 min after co-administration of compounds for a 30 min habituation period to the cages and recording of basal locomotor activity. Animals then received (via subcutaneous administration) (+)-MK801 hydrogen maleate at a dose of 0.3 mg/kg salt (RBI/Sigma Lot #108H4705 dissolved in saline, volume injection 1 cc/kg). The rats were immediately placed back into the locomotor activity cages, and activity was measured for 180 min.

SMILES	MK-801-induced hyperactivity as measured by a decrease in ambulation	effect of MK801 on fine movements, a measure of stereotypies (rats)	effect on rear measures (rearing activity) (rats)	motor parameters recorded: ambulation, fine movement and rearing activity (rats, MK-801 0.3 mg/kg s.c. alone)
Cn1ncc(Br)c1-c1cccc(NC(=O)Nc2ccc(Cl)cc2)c1 [AR116081, N-[3-(4-bromo-2-methylpyrazol-3-yl)phenyl][(4-chlorophenyl)amino]carboxamide]	attenuated	attenuated but did not significantly reverse	No effects	–
C[C@]12N[C@H](Cc3ccccc31)c1ccccc12 [MK-801, (+)-MK801 hydrogen maleate]	–	–	–	significant increase
O=C(CCCN1CCC(O)(c2ccc(Cl)cc2)CC1)c1ccc(F)cc1 [Haloperidol]	attenuated	attenuated but did not significantly reverse	No effects	–
